Here are results for five compounds from patent publication EP1935986B1, “Luminogenic and fluorogenic compounds and methods to detect molecules or conditions” (priority 2005, dated 2006).

For one assay, the target named is T1, QuantiLum Luciferase (Photinus pyralis, UniProt P08659).
T1 construct: purchased Promega Corporation E170
Description: Scaffolds: light emission of luciferin derivatives with QuantiLum luciferase alone, + Co A, + DTT, + Co A and DTT. The assay is classed as biochemical, firefly. How it is done:
The DTT, Coenzyme A, and QuantiLum stock solutions are the same as those described herein.
This solution was diluted 1:1 with water to produce an enzyme solution labeled "No addition." This solution was diluted 1:1 with 400 mM DTT, pH 8.0 to produce a solution labeled +DTT. This solution was diluted 1:1 with 4 mM Coenzyme A to produce a solution labeled + Co A. Finally, this solution was diluted 1:1 with a solution having both 4 mM Coenzyme A and 400 mM DTT to produce a solution labeled +Co A & DTT.
50 µl samples of these solutions were placed in the wells of luminometer microtiter plates, row A to row G, respeutivly. Row H of the plates was given 50 µl of water.
Reactions in these plates were initiated by addition of 50 µl of solution containing QuantiLum luciferase using a 12 channel micropipette. The solutions added to the rows were: columns 1, 5, and 9 - no addition solution; columns 2, 6, and 10 - + Co A solution; columns 3, 7, and 11 + DTT solution, and; columns 4, 8, and 12 - + Co A and DTT solution. After addition of the enzyme solution to the first row on every plate, a timer was started. After addition of the enzyme solution to the last row on each plate, the plate was sealed and read on a Veritas luminometer.

Assay [1] concerns thermostable luciferase (Luc 146-1H2). Put plainly: Thermostable luciferase reaction with luciferin derivatives: light readings. Particulars: 100 µM each; result in words. The assay is classed as biochemical. How it is done:
This stock was used to produce enzyme stock solution having of 200 µg/ml enzyme solution in 1 mg/ml BSA, 200 mM HEPES buffer, pH 8.0, 20 mM MgCl2.
Solutions were made using a 1 M DTT solution, pH adjusted to 8.0, a 20 mM Coenzyme A solution in water (both described in examples above), a 100 mM ATP solution and water to create the following solutions: Sol'A, 100 µM ATP; Sol'B, 100 µM ATP, 4 mM Coenzyme A; Sol'n C, 100 µM ATP, 400 mM DTT, and; Sol'n D, 100 µM ATP, 4 mM Coenzyme A and 400 mM DTT.
The following reactions were prepared (Table 47) Table 47
After assembly, the reactions were initiated by addition of 25 µl of the thermostable luciferase stock solution above and mixing the tube contents. A 50 µl sample was immediately removed and placed in a luminometer tube and the light read and the tube then replaced in a tube rack at room temperature. While the light reading was being taken, a 5 µl sample of the remaining reaction (which was kept at room temperature) was diluted into 495 µl of 50 mM BisTris, pH 6.5, 1 mg/ml BSA, 1 mM EDTA prechilled to 4°C and the tube mixed and placed on ice. The light produced by the samples in the luminometer tubes were re-read at 20, 40, 60, 90 and 120 minutes post enzyme addition. Additional 5 µl samples were taken and diluted as above at 60 and 120 minutes post enzyme addition. Once all these readings and samples were taken, 50 µl of the diluted samples was mixed with 50 µl of Steady Glo in luminometer tubes, the tubes incubated 10 minutes on ice then the light produced was read on a Turner TD 20/20 luminometer.

Setting [2] is: Derivative Conc. 1.07, Co A + DTT.
The mark [3] stands for this setting: Derivative Conc. 3.13, Co A + DTT.
Where [4] appears, read: Derivative Conc. 6.25, Co A + DTT.
Setting [5] is: Derivative Conc. 12.5, Co A + DTT.
Setting [6] is: Derivative Conc. 25, Co A + DTT.
The mark [7] stands for this setting: Derivative Conc. 50, Co A + DTT.
The mark [8] stands for this setting: Derivative Conc. 100, Co A + DTT.

T1 sequence (P08659 whole entry): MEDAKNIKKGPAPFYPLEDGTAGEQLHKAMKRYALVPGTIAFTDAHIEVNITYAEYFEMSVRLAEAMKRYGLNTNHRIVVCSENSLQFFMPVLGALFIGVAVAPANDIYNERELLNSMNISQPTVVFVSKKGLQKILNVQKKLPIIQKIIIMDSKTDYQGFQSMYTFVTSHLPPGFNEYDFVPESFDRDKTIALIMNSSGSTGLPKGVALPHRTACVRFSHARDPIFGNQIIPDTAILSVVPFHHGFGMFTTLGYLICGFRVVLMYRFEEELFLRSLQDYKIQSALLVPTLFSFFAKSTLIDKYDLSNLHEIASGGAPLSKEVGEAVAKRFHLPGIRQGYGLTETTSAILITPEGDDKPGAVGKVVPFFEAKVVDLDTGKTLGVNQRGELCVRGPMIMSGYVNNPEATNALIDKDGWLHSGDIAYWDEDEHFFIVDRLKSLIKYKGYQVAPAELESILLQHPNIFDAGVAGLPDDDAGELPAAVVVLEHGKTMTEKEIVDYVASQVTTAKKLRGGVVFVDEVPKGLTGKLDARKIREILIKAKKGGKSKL

`O=C(O)[C@H]1CSC(c2nc3ccc(OCCO)cc3s2)=N1` [2hydroxyethoxyluciferin ether]: the light emission values is recorded as 8807 on QuantiLum Luciferase (Derivative Conc. 1.07, Alone); 13847 on QuantiLum Luciferase (Derivative Conc. 1.07, Co A); 22105 at QuantiLum Luciferase (setting [2]); 24491 on QuantiLum Luciferase (Derivative Conc. 1.07, DTT); 10769 on QuantiLum Luciferase (Derivative Conc. 3.13, Alone); 14986 on QuantiLum Luciferase (Derivative Conc. 3.13, Co A). Also, the light emission values came out at 32555 on QuantiLum Luciferase (setting [3]); 36967 on QuantiLum Luciferase (Derivative Conc. 3.13, DTT); 14686 at QuantiLum Luciferase (Derivative Conc. 6.25, Alone); 18532 at QuantiLum Luciferase (Derivative Conc. 6.25, Co A); 42815 at QuantiLum Luciferase (setting [4]); 48458 at QuantiLum Luciferase (Derivative Conc. 6.25, DTT). The light emission values on QuantiLum Luciferase (Derivative Conc. 12.5, Alone) worked out at 19586; at QuantiLum Luciferase (Derivative Conc. 12.5, Co A), 21636; at QuantiLum Luciferase (setting [5]) it was 54630; at QuantiLum Luciferase (Derivative Conc. 12.5, DTT), 61882; at QuantiLum Luciferase (Derivative Conc. 25, Alone), 27356; at QuantiLum Luciferase (Derivative Conc. 25, Co A), 28679. The light emission values at QuantiLum Luciferase (setting [6]) was 67303; at QuantiLum Luciferase (Derivative Conc. 25, DTT) it was 76612; on QuantiLum Luciferase (Derivative Conc. 50, Alone) it was 38444; at QuantiLum Luciferase (Derivative Conc. 50, Co A), 39320; at QuantiLum Luciferase (setting [7]) it was 87170; at QuantiLum Luciferase (Derivative Conc. 50, DTT) it was 98407. Further, the light emission values on QuantiLum Luciferase (Derivative Conc. 100, Alone) was 53804; at QuantiLum Luciferase (Derivative Conc. 100, Co A), 52640; on QuantiLum Luciferase (setting [8]), 94724; at QuantiLum Luciferase (Derivative Conc. 100, DTT) it was 128249.

As for `COC(=O)[C@H]1CSC(c2ccc3cc(Oc4ccc(C(F)(F)F)cc4[N+](=O)[O-])ccc3n2)=N1` [GST #4], the light emission values on QuantiLum Luciferase (Derivative Conc. 1.07, Alone) was 1146; at QuantiLum Luciferase (Derivative Conc. 1.07, Co A), 1533; at QuantiLum Luciferase (setting [2]), 1714; at QuantiLum Luciferase (Derivative Conc. 1.07, DTT) it was 1102; on QuantiLum Luciferase (Derivative Conc. 3.13, Alone) it was 1537; on QuantiLum Luciferase (Derivative Conc. 3.13, Co A), 1635. The light emission values on QuantiLum Luciferase (setting [3]) came to 2034; on QuantiLum Luciferase (Derivative Conc. 3.13, DTT), 1458; on QuantiLum Luciferase (Derivative Conc. 6.25, Alone) it was 1571; on QuantiLum Luciferase (Derivative Conc. 6.25, Co A) it was 1562; on QuantiLum Luciferase (setting [4]), 1730; on QuantiLum Luciferase (Derivative Conc. 6.25, DTT) it was 1633. Moreover, the light emission values at QuantiLum Luciferase (Derivative Conc. 12.5, Alone) is reported as 1692; on QuantiLum Luciferase (Derivative Conc. 12.5, Co A), 1275; at QuantiLum Luciferase (setting [5]), 1891; on QuantiLum Luciferase (Derivative Conc. 12.5, DTT), 1474; at QuantiLum Luciferase (Derivative Conc. 25, Alone), 1413; on QuantiLum Luciferase (Derivative Conc. 25, Co A), 1026. For the same compound, the light emission values at QuantiLum Luciferase (setting [6]) is reported as 1640; on QuantiLum Luciferase (Derivative Conc. 25, DTT), 1492; on QuantiLum Luciferase (Derivative Conc. 50, Alone), 1598; on QuantiLum Luciferase (Derivative Conc. 50, Co A), 1366; on QuantiLum Luciferase (setting [7]) it was 1729; on QuantiLum Luciferase (Derivative Conc. 50, DTT) it was 1354. Also, the light emission values is 2119 at QuantiLum Luciferase (Derivative Conc. 100, Alone); 1853 at QuantiLum Luciferase (Derivative Conc. 100, Co A); 1990 at QuantiLum Luciferase (setting [8]); 1618 at QuantiLum Luciferase (Derivative Conc. 100, DTT).

For the compound `CCN(CC)c1ccc2nc(C3=NC(C(=O)O)CS3)sc2c1` (stereo not drawn) [diethylaminoluciferin], the light emission values on QuantiLum Luciferase (Derivative Conc. 1.07, Alone) was 656110; at QuantiLum Luciferase (Derivative Conc. 1.07, Co A), 688887; at QuantiLum Luciferase (setting [2]) it was 20592; on QuantiLum Luciferase (Derivative Conc. 1.07, DTT), 5192; at QuantiLum Luciferase (Derivative Conc. 3.13, Alone), 2259570; at QuantiLum Luciferase (Derivative Conc. 3.13, Co A), 1941060. Also, the light emission values at QuantiLum Luciferase (setting [3]) is 93423; on QuantiLum Luciferase (Derivative Conc. 3.13, DTT), 47727; at QuantiLum Luciferase (Derivative Conc. 6.25, Alone) it was 4009797; at QuantiLum Luciferase (Derivative Conc. 6.25, Co A) it was 3457051; at QuantiLum Luciferase (Derivative Conc. 6.25, DTT), 165732; on QuantiLum Luciferase (Derivative Conc. 12.5, Alone) it was 5418990. Moreover, the light emission values on QuantiLum Luciferase (Derivative Conc. 12.5, Co A) turned out to be 4485779; on QuantiLum Luciferase (setting [5]) it was 645536; at QuantiLum Luciferase (Derivative Conc. 12.5, DTT), 682672; on QuantiLum Luciferase (Derivative Conc. 25, Alone), 6763022; on QuantiLum Luciferase (Derivative Conc. 25, Co A) it was 5623886; on QuantiLum Luciferase (setting [6]), 1067954. Moreover, the light emission values came out at 1304383 on QuantiLum Luciferase (Derivative Conc. 25, DTT); 8176569 at QuantiLum Luciferase (Derivative Conc. 50, Alone); 7206157 at QuantiLum Luciferase (Derivative Conc. 50, Co A); 1538668 on QuantiLum Luciferase (setting [7]); 1826771 on QuantiLum Luciferase (Derivative Conc. 50, DTT); 9082149 on QuantiLum Luciferase (Derivative Conc. 100, Alone). The light emission values stood at 1960750 at QuantiLum Luciferase (setting [8]) and 2180983 at QuantiLum Luciferase (Derivative Conc. 100, DTT).

`CN(C)c1ccc2nc(C3=NC(C(=O)O)CS3)sc2c1` (stereo not drawn) [dimethyl amino luciferin]: the “brightness of luciferase reaction relative to amino luciferin” value in assay [1] is reported as “about half as bright”.

Regarding `CN(Cc1ccccc1)c1ccc2nc(C3=NC(C(=O)O)CS3)sc2c1` (stereo not drawn) [methylbenzylaminoluciferin], the light emission values at QuantiLum Luciferase (Derivative Conc. 1.07, Alone) is on record as 25907602; at QuantiLum Luciferase (Derivative Conc. 1.07, Co A), 12863007; on QuantiLum Luciferase (setting [2]) it was 2037020; at QuantiLum Luciferase (Derivative Conc. 1.07, DTT), 929977; on QuantiLum Luciferase (Derivative Conc. 3.13, Alone), 34516960; at QuantiLum Luciferase (Derivative Conc. 3.13, Co A) it was 23501282. The light emission values on QuantiLum Luciferase (setting [3]) is recorded as 9404429; at QuantiLum Luciferase (Derivative Conc. 3.13, DTT), 8088743; on QuantiLum Luciferase (Derivative Conc. 6.25, Alone) it was 43052788; at QuantiLum Luciferase (Derivative Conc. 6.25, Co A), 35730272; at QuantiLum Luciferase (setting [4]) it was 19738584; on QuantiLum Luciferase (Derivative Conc. 6.25, DTT) it was 21756222. Further, the light emission values is 50528576 on QuantiLum Luciferase (Derivative Conc. 12.5, Alone); 50418220 at QuantiLum Luciferase (Derivative Conc. 12.5, Co A); 30367190 on QuantiLum Luciferase (setting [5]); 36663612 on QuantiLum Luciferase (Derivative Conc. 12.5, DTT); 61572912 at QuantiLum Luciferase (Derivative Conc. 25, Alone); 63598896 at QuantiLum Luciferase (Derivative Conc. 25, Co A). For the same compound, the light emission values on QuantiLum Luciferase (setting [6]) worked out at 42613860; on QuantiLum Luciferase (Derivative Conc. 25, DTT), 50632712; on QuantiLum Luciferase (Derivative Conc. 50, Alone) it was 73867336; at QuantiLum Luciferase (Derivative Conc. 50, Co A) it was 78390592; at QuantiLum Luciferase (setting [7]) it was 47965140; on QuantiLum Luciferase (Derivative Conc. 50, DTT), 54238960. The light emission values was 85579872 on QuantiLum Luciferase (Derivative Conc. 100, Alone); 89117784 at QuantiLum Luciferase (Derivative Conc. 100, Co A); 48409604 at QuantiLum Luciferase (setting [8]); 50806656 on QuantiLum Luciferase (Derivative Conc. 100, DTT).
